Earlier results in patent US20200390726A1, “Compositions for Improved Neuroprotective Effects and Methods of Making Same” (Guardion Health Sciences, LLC, priority 2019, published 2020).

Tested on: glaucoma patients
Settings: literature, anthocyanins 50 mg daily, PEA 600 mg per day, Mirtogenol dose not given

CCCCCCCCCCCCCCCC(=O)NCCO [PEA, Palmitoylethanolamide]
effect on visual field (citicoline 500 to 1,000 mg daily): improvement in the visual field | effect on intraocular pressure (IOP) (forskolin 1% eye drops): lowering of IOP
